# According to ChEMBL document CHEMBL3745645, “Synthesis, in vitro antitumor activity, dihydrofolate reductase inhibition, DNA intercalation and structure-activity relationship studies of 1,3,5-triazine analogues” (Bioorg Med Chem Lett, 2016):
# The source made the active and inactive calls. The rule behind the calls is not given here.
# Tests used:
# Type in all cases: functional
# [1] = Cytotoxicity against human SF268 cells at 10 uM after 48 hrs by SRB assay; details: SF-268, 48 h, read-out: GI
# [2] = Cytotoxicity against human OVCAR8 cells at 10 uM after 48 hrs by SRB assay; details: OVCAR-8, 48 h, read-out: GI
# HCC 2998 = assay: Cytotoxicity against human HCC2998 cells at 10 uM after 48 hrs by SRB assay
# [3] = Cytotoxicity against human SF295 cells at 10 uM after 48 hrs by SRB assay; details: SF-295, 48 h, read-out: GI
# NCI-H522 = assay: Cytotoxicity against human NCI-H522 cells at 10 uM after 48 hrs by SRB assay; details: NCI-H522, 48 h, read-out: GI
# HL-60(TB) = assay: Cytotoxicity against human HL-60(TB) cells at 10 uM after 48 hrs by SRB assay
# [4] = Cytotoxicity against human UACC257 cells at 10 uM after 48 hrs by SRB assay; details: UACC-257, 48 h, read-out: GI
# SK-MEL-2 = assay: Cytotoxicity against human SK-MEL-2 cells at 10 uM after 48 hrs by SRB assay
# SK-OV-3 = assay: Cytotoxicity against human SKOV3 cells at 10 uM after 48 hrs by SRB assay
# M14 = assay: Cytotoxicity against human M14 cells at 10 uM after 48 hrs by SRB assay; details: M14, 48 h, read-out: GI
# SR = assay: Cytotoxicity against human SR cells at 10 uM after 48 hrs by SRB assay; details: read-out: GI
# SN12C = assay: Cytotoxicity against human SN12C cells at 10 uM after 48 hrs by SRB assay; details: read-out: GI
# MCF7 = assay: Cytotoxicity against human MCF7 cells at 10 uM after 48 hrs by SRB assay; details: MCF7, 48 h, read-out: GI
# CAKI-1 = assay: Cytotoxicity against human Caki1 cells at 10 uM after 48 hrs by SRB assay
# T47D = assay: Cytotoxicity against human T47D cells at 10 uM after 48 hrs by SRB assay; details: read-out: GI
# [5] = Cytotoxicity against human NCI-ADR-RES cells at 10 uM after 48 hrs by SRB assay; details: read-out: GI
# [6] = Cytotoxicity against human LOXIMVI cells at 10 uM after 48 hrs by SRB assay; details: LOX IMVI, read-out: GI
# [7] = Cytotoxicity against human OVCAR4 cells at 10 uM after 48 hrs by SRB assay; details: OVCAR-4, 48 h, read-out: GI
# CCRF-CEM = assay: Cytotoxicity against human CCRF-CEM cells at 10 uM after 48 hrs by SRB assay; details: read-out: GI
# Malme-3M = assay: Cytotoxicity against human MALME-3M cells at 10 uM after 48 hrs by SRB assay
# K562 = assay: Cytotoxicity against human K562 cells at 10 uM after 48 hrs by SRB assay; details: K562, 48 h, read-out: GI
# SNB-19 = assay: Cytotoxicity against human SNB19 cells at 10 uM after 48 hrs by SRB assay
# OVCAR-5 = assay: Cytotoxicity against human OVCAR5 cells at 10 uM after 48 hrs by SRB assay
# ACHN = assay: Cytotoxicity against human ACHN cells at 10 uM after 48 hrs by SRB assay; details: read-out: GI
# [8] = Cytotoxicity against human DU145 cells at 10 uM after 48 hrs by SRB assay; details: DU-145, 48 h, read-out: GI
# A549 = assay: Cytotoxicity against human A549 cells at 10 uM after 48 hrs by SRB assay; details: A549, 48 h, read-out: GI
# [9] = Cytotoxicity against human SF539 cells at 10 uM after 48 hrs by SRB assay; details: SF-539, 48 h, read-out: GI
# MDA-MB-468 = assay: Cytotoxicity against human MDA-MB-468 cells at 10 uM after 48 hrs by SRB assay; details: MDA-MB-468, 48 h, read-out: GI
# [10] = Cytotoxicity against human OVCAR3 cells at 10 uM after 48 hrs by SRB assay; details: OVCAR-3, 48 h, read-out: GI
# [11] = Cytotoxicity against human UO31 cells at 10 uM after 48 hrs by SRB assay; details: UO-31, 48 h, read-out: GI
# NCI-H322M = assay: Cytotoxicity against human NCI-H322M cells at 10 uM after 48 hrs by SRB assay; details: read-out: GI
# [12] = Cytotoxicity against human IGROV1 cells at 10 uM after 48 hrs by SRB assay; details: IGROV-1, 48 h, read-out: GI
# [13] = Cytotoxicity against human HOP92 cells at 10 uM after 48 hrs by SRB assay; details: HOP-92, 48 h, read-out: GI
# 786-0 = assay: Cytotoxicity against human 786-0 cells at 10 uM after 48 hrs by SRB assay; details: 786-0, 48 h, read-out: GI
# NCI-H226 = assay: Cytotoxicity against human NCI-H226 cells at 10 uM after 48 hrs by SRB assay; details: NCI-H226, 48 h, read-out: GI
# SW-620 = assay: Cytotoxicity against human SW620 cells at 10 uM after 48 hrs by SRB assay
# [14] = Cytotoxicity against human RXF393 cells at 10 uM after 48 hrs by SRB assay; details: RXF 393, 48 h, read-out: GI
# [15] = Cytotoxicity against human COLO205 cells at 10 uM after 48 hrs by SRB assay; details: COLO 205, 48 h, read-out: GI
# HT-29 = assay: Cytotoxicity against human HT-29 cells at 10 uM after 48 hrs by SRB assay; details: HT-29, 48 h, read-out: GI
# NCI-H460 = assay: Cytotoxicity against human NCI-H460 cells at 10 uM after 48 hrs by SRB assay; details: NCI-H460, 48 h, read-out: GI
# [16] = Cytotoxicity against human HOP62 cells at 10 uM after 48 hrs by SRB assay; details: HOP-62, 48 h, read-out: GI
# [17] = Cytotoxicity against human HCT116 cells at 10 uM after 48 hrs by SRB assay; details: HCT-116, 48 h, read-out: GI
# MDA-MB-231 = assay: Cytotoxicity against human MDA-MB-231 cells at 10 uM after 48 hrs by SRB assay; details: MDA-MB-231, 48 h, read-out: GI
# HCT-15 = assay: Cytotoxicity against human HCT15 cells at 10 uM after 48 hrs by SRB assay
# SNB-75 = assay: Cytotoxicity against human SNB75 cells at 10 uM after 48 hrs by SRB assay
# TK-10 = assay: Cytotoxicity against human TK10 cells at 10 uM after 48 hrs by SRB assay
# SK-MEL-28 = assay: Cytotoxicity against human SK-MEL-28 cells at 10 uM after 48 hrs by SRB assay
# [18] = Cytotoxicity against human RPMI8226 cells at 10 uM after 48 hrs by SRB assay; details: RPMI-8226, 48 h, read-out: GI
# SK-MEL-5 = assay: Cytotoxicity against human SK-MEL-5 cells at 10 uM after 48 hrs by SRB assay; details: SK-MEL-5, 48 h, read-out: GI
# MDA-MB-435 = assay: Cytotoxicity against human MDA-MB-435 cells at 10 uM after 48 hrs by SRB assay; details: MDA-MB-435, 48 h, read-out: GI
# A498 = assay: Cytotoxicity against human A498 cells at 10 uM after 48 hrs by SRB assay; details: A498, 48 h, read-out: GI
# Hs-578T = assay: Cytotoxicity against human Hs 578T cells at 10 uM after 48 hrs by SRB assay
# BT-549 = assay: Cytotoxicity against human BT549 cells at 10 uM after 48 hrs by SRB assay
# KM12 = assay: Cytotoxicity against human KM12 cells at 10 uM after 48 hrs by SRB assay; details: KM12, 48 h, read-out: GI
# U-251 = assay: Cytotoxicity against human U251 cells at 10 uM after 48 hrs by SRB assay; details: U-251, 48 h, read-out: GI
smiles,measurement,setting,value
Cc1nc2cc(Nc3nc(NCCO)nc(Nc4ccc(F)cc4)n3)ccc2n1Cc1ccccc1,inhibition of growth at 10 µM,[1],7.77%
same,inhibition of growth at 10 µM,[2],20%
same,growth inhibition (GI),HCC 2998,inactive
same,inhibition of growth at 10 µM,[3],13.6%
same,inhibition of growth at 10 µM,NCI-H522,14.3%
same,growth inhibition (GI),HL-60(TB),Active
same,inhibition of growth at 10 µM,[4],1.2%
same,growth inhibition (GI),SK-MEL-2,inactive
same,growth inhibition (GI),SK-OV-3,inactive
same,inhibition of growth at 10 µM,M14,6.95%
same,inhibition of growth at 10 µM,SR,85.1%
same,inhibition of growth at 10 µM,SN12C,8.89%
same,inhibition of growth at 10 µM,MCF7,8.72%
same,growth inhibition (GI),CAKI-1,inactive
same,inhibition of growth at 10 µM,T47D,34.7%
same,inhibition of growth at 10 µM,[5],2.28%
same,inhibition of growth at 10 µM,[6],18.1%
same,inhibition of growth at 10 µM,[7],4.73%
same,inhibition of growth at 10 µM,CCRF-CEM,98.1%
same,growth inhibition (GI),Malme-3M,inactive
same,inhibition of growth at 10 µM,K562,80.8%
same,growth inhibition (GI),SNB-19,inactive
same,growth inhibition (GI),OVCAR-5,inactive
same,inhibition of growth at 10 µM,ACHN,1.72%
same,inhibition of growth at 10 µM,[8],11.5%
same,inhibition of growth at 10 µM,A549,25.9%
same,inhibition of growth at 10 µM,[9],5.61%
same,inhibition of growth at 10 µM,MDA-MB-468,0.84%
same,inhibition of growth at 10 µM,[10],9.84%
same,inhibition of growth at 10 µM,[11],21.2%
same,inhibition of growth at 10 µM,NCI-H322M,1.09%
same,inhibition of growth at 10 µM,[12],11.1%
same,inhibition of growth at 10 µM,[13],50.1%
same,inhibition of growth at 10 µM,786-0,5.33%
same,inhibition of growth at 10 µM,NCI-H226,8.37%
same,growth inhibition (GI),SW-620,inactive
same,inhibition of growth at 10 µM,[14],9.82%
same,inhibition of growth at 10 µM,[15],5.46%
same,inhibition of growth at 10 µM,HT-29,28.1%
same,inhibition of growth at 10 µM,NCI-H460,16.5%
same,inhibition of growth at 10 µM,[16],6.05%
same,inhibition of growth at 10 µM,[17],23.4%
same,inhibition of growth at 10 µM,MDA-MB-231,19.7%
same,growth inhibition (GI),HCT-15,inactive
same,growth inhibition (GI),SNB-75,inactive
same,growth inhibition (GI),TK-10,inactive
same,growth inhibition (GI),SK-MEL-28,inactive
same,inhibition of growth at 10 µM,[18],85.8%
same,inhibition of growth at 10 µM,SK-MEL-5,19.7%
same,inhibition of growth at 10 µM,MDA-MB-435,8.37%
same,inhibition of growth at 10 µM,A498,33.8%
same,growth inhibition (GI),Hs-578T,inactive
same,growth inhibition (GI),BT-549,inactive
same,inhibition of growth at 10 µM,KM12,19.7%
same,inhibition of growth at 10 µM,U-251,13.7%
